Drawing on PubChem BioAssay (NCI), this text covers TGI for eight compounds.

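Cultured in 96-well plates, cells were exposed to test compound for 48 hours across five concentrations. Definition used: TGI = concentration required for complete inhibition of growth.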 Where only a bound is given, the exact number is not on record here.

Test systems include COLO 205 colon; HOP-62 NSCLC; HS 578T breast; HT29 colon; K-562 leukemia; KM12 colon; MDA-MB-231 breast; MDA-MB-435; MOLT-4 leukemia; NCI-H522 lung; NCI/ADR-RES ovarian; OVCAR-5 ovarian; PC-3 prostate; RPMI-8226 leukemia; SF-268 CNS; SR leukemia; U251 CNS; OVCAR-4 ovarian; RXF 393 renal; NCI-H226 lung.
What all share (experiment): NCI-60 cell line screen, 48 h

As to `CCC1C(=O)C(O)[C@H]2[C@@H]3C(O)CC4=CC(=O)CC[C@]4(C)[C@H]3CC[C@]12C` (stereo partly specified), the TGI in the test with COLO 205 colon, in the test on HOP-62 NSCLC, in the test on HS 578T breast, in the test with HT29 colon, with K-562 leukemia and in the test on KM12 colon was more than 50 µM each time. In addition, the TGI with MDA-MB-231 breast, in the test on MDA-MB-435, with MOLT-4 leukemia, in the test with NCI-H522 lung, with NCI/ADR-RES ovarian and in the test with OVCAR-5 ovarian was more than 50 µM throughout. Also, the TGI with PC-3 prostate, in the test on RPMI-8226 leukemia, in the test on SF-268 CNS, with SR leukemia and in the test with U251 CNS was more than 50 µM throughout.

For the compound `CC[C@]12C=CCN3CC[C@@]4(c5cc(Br)c(OC)cc5N(C)[C@H]4[C@@](O)(C(=O)N[C@@H](Cc4ccc(O)cc4)C(=O)OC)[C@@H]1O)[C@@H]32`, the TGI in the test on COLO 205 colon is 33.1 µM; with HOP-62 NSCLC, more than 100 µM; in the test with HS 578T breast, 54.2 µM; in the test on HT29 colon it was 30 µM; in the test on K-562 leukemia it was more than 100 µM; in the test on KM12 colon, 38.5 µM. The TGI in the test with MDA-MB-231 breast stood at 30.6 µM; with MDA-MB-435, 35.8 µM; in the test with MOLT-4 leukemia, 62.3 µM; in the test with NCI-H522 lung it was 54.4 µM; in the test on NCI/ADR-RES ovarian, 62.3 µM; with OVCAR-4 ovarian, 40 µM. In addition, the TGI with OVCAR-5 ovarian is more than 100 µM; with PC-3 prostate, more than 100 µM; with RPMI-8226 leukemia, 36 µM; with RXF 393 renal, 38.4 µM; with SF-268 CNS, 52.4 µM; with SR leukemia it was 46.4 µM. Besides, the TGI in the test on U251 CNS was determined as 27.8 µM.

In the case of `CC(=O)O[C@H]1CCC2[C@@H]3CCC4Cc5nc6c(nc5C[C@]4(C)C3CC[C@@]21C)CC1CC[C@@H]2C(CC[C@@]3(C)C2CC[C@@H]3C(C)CCCC(C)C)[C@@]1(C)C6` (stereo partly specified), the TGI in the test on COLO 205 colon, in the test on HOP-62 NSCLC, in the test on HS 578T breast, with HT29 colon, in the test on K-562 leukemia and in the test with KM12 colon was more than 100 µM throughout. Moreover, the TGI in the test with MDA-MB-231 breast, in the test with MDA-MB-435, in the test with MOLT-4 leukemia, with NCI-H226 lung, with NCI/ADR-RES ovarian and with OVCAR-4 ovarian was more than 100 µM in each case. Further, the TGI in the test on OVCAR-5 ovarian, in the test with PC-3 prostate, with RPMI-8226 leukemia, with RXF 393 renal, in the test with SF-268 CNS and with U251 CNS was more than 100 µM in each case.

As for `COC(=O)/C=C\C(C#N)(C#N)N=Cc1ccc(Br)s1`, the TGI in the test on COLO 205 colon is 6.02 µM; with HOP-62 NSCLC, 31.8 µM; with HS 578T breast, more than 85.5 µM; with K-562 leukemia, more than 100 µM; in the test with KM12 colon it was 32.6 µM; in the test with MDA-MB-231 breast, 4.51 µM. The TGI in the test with MDA-MB-435 is 13.9 µM; in the test on MOLT-4 leukemia, more than 100 µM; in the test with NCI-H226 lung it was 12.4 µM; in the test on NCI-H522 lung it was 3.33 µM; with NCI/ADR-RES ovarian, 45.2 µM; with OVCAR-4 ovarian it was 16.3 µM. In addition, the TGI was 31.5 µM in the test with OVCAR-5 ovarian; 26.8 µM with PC-3 prostate; 7.11 µM with RPMI-8226 leukemia; 4.87 µM with RXF 393 renal; 40.2 µM in the test on SF-268 CNS; 38 µM in the test with U251 CNS.

For `O[C@@H]1C[C@H]2N3CC[C@@]2(c2cc4c(cc2C3)OCO4)[C@H]2O[C@@H]12`, the TGI in the test with COLO 205 colon is 0.0204 µM; in the test on HOP-62 NSCLC it was more than 100 µM; with HS 578T breast, more than 100 µM; in the test on HT29 colon, more than 100 µM; in the test with K-562 leukemia, more than 100 µM; in the test with KM12 colon, more than 100 µM. Further, the TGI in the test with MDA-MB-231 breast was more than 100 µM; in the test on MDA-MB-435, more than 100 µM; in the test on MOLT-4 leukemia, more than 100 µM; in the test on NCI-H226 lung, 0.0792 µM; in the test with NCI-H522 lung, more than 100 µM; in the test with NCI/ADR-RES ovarian, more than 100 µM. Besides, the TGI with OVCAR-4 ovarian, in the test on OVCAR-5 ovarian, in the test with PC-3 prostate, with RPMI-8226 leukemia, in the test on RXF 393 renal and in the test on SF-268 CNS was more than 100 µM in each case. In the test with U251 CNS, the TGI was more than 100 µM.

For `O=C(O)[C@@H]1NC[C@H]2C(Br)=NO[C@H]21`, the TGI in the test on COLO 205 colon, with HOP-62 NSCLC, with HS 578T breast, in the test on HT29 colon, in the test on KM12 colon and in the test with MDA-MB-231 breast was more than 100 µM throughout. The TGI in the test on MDA-MB-435, in the test on MOLT-4 leukemia, in the test on NCI-H226 lung, in the test with NCI-H522 lung, in the test on NCI/ADR-RES ovarian and in the test on OVCAR-4 ovarian was more than 100 µM in each case. Besides, the TGI in the test on OVCAR-5 ovarian, with PC-3 prostate, in the test with RPMI-8226 leukemia, in the test on RXF 393 renal, in the test on SF-268 CNS and in the test on SR leukemia was more than 100 µM each time. In the test with U251 CNS, the TGI was more than 100 µM.

Consider `CC(=O)N1CC(=O)N2C(=O)/C(=C/c3ccc(Cl)cc3)N=C12`, for which the TGI with COLO 205 colon, in the test on HOP-62 NSCLC, in the test on HS 578T breast, in the test on HT29 colon, in the test with K-562 leukemia and with KM12 colon was more than 100 µM each time. Also, the TGI in the test with MDA-MB-231 breast, in the test on MDA-MB-435, in the test on MOLT-4 leukemia, in the test on NCI-H226 lung, with NCI/ADR-RES ovarian and in the test with OVCAR-4 ovarian was more than 100 µM throughout. For the same compound, the TGI in the test with OVCAR-5 ovarian, with PC-3 prostate, in the test on RPMI-8226 leukemia, with RXF 393 renal, with SF-268 CNS and with U251 CNS was more than 100 µM in each case.

For the compound `COC(=O)Nc1nc2ccc(NC(=O)c3cccs3)cc2[nH]1`, the TGI in the test with COLO 205 colon is more than 100 µM; in the test with HOP-62 NSCLC it was more than 100 µM; in the test on HS 578T breast, 44.7 µM; in the test with HT29 colon it was more than 100 µM; in the test on K-562 leukemia, more than 100 µM; with KM12 colon, more than 100 µM. The TGI with MDA-MB-231 breast is more than 100 µM; with MDA-MB-435, 39.4 µM; in the test with MOLT-4 leukemia, more than 100 µM; in the test with NCI-H226 lung it was more than 100 µM; with NCI/ADR-RES ovarian, 55.4 µM; in the test on OVCAR-4 ovarian it was more than 100 µM. Moreover, the TGI in the test with OVCAR-5 ovarian was more than 100 µM; in the test on PC-3 prostate, more than 100 µM; in the test with RPMI-8226 leukemia, 46.4 µM; in the test with RXF 393 renal it was 86.7 µM; in the test on SF-268 CNS, more than 100 µM; in the test with U251 CNS it was more than 100 µM.
